Among the data in patent US20210300940A1 (Merck Patent GmbH, priority 2018, published 2021) are IC50 values, retold here.

The target of one assay is T1, TLR8 (Homo sapiens, UniProt Q9NR97).
T1 construct: expressed in transfected cells; host or cells: HEK/293 reporter cells (NF-kB luciferase)
T1 sequence (Q9NR97 27-1041): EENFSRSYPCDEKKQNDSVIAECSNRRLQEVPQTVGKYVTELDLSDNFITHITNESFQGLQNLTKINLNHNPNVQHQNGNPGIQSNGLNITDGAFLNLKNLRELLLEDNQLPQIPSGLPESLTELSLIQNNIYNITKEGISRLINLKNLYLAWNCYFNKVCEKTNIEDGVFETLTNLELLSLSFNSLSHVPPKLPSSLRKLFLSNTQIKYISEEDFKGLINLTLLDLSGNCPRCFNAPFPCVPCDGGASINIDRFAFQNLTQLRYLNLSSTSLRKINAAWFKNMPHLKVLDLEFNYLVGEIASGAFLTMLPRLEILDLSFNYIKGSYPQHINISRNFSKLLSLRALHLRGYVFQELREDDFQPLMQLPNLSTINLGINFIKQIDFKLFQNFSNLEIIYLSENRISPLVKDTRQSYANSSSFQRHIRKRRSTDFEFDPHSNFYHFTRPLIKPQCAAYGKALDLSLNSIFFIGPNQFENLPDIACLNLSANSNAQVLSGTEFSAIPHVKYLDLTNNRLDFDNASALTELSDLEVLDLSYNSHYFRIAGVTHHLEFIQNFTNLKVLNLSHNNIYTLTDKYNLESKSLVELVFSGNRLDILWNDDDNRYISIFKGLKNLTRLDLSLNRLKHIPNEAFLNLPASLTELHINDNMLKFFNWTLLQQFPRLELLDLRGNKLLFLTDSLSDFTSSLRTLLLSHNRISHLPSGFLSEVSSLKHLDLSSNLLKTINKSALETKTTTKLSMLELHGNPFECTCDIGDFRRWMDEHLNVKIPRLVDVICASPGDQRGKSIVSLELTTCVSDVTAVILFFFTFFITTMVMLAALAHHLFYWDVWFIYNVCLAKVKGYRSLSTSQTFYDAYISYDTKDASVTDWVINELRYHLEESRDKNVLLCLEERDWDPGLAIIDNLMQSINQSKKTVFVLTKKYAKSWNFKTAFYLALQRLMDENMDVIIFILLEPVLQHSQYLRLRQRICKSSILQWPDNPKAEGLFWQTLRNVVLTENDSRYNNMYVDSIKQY
The assay can be described thus: HEK/293 TLR8 Cell Assay. The class given is cell-based. The settings on record: HEK cells, R848 agonist 30 uM final concentration, Steady-Glo readout; read-out: TLR8 potency.

The target in another assay is T2, TLR7 (Homo sapiens, UniProt Q9NYK1).
T2 construct: expressed in transfected cells; host or cells: HEK/293 cells carrying TLR7 and an NF-kB luciferase reporter
T2 sequence (Q9NYK1 27-1049): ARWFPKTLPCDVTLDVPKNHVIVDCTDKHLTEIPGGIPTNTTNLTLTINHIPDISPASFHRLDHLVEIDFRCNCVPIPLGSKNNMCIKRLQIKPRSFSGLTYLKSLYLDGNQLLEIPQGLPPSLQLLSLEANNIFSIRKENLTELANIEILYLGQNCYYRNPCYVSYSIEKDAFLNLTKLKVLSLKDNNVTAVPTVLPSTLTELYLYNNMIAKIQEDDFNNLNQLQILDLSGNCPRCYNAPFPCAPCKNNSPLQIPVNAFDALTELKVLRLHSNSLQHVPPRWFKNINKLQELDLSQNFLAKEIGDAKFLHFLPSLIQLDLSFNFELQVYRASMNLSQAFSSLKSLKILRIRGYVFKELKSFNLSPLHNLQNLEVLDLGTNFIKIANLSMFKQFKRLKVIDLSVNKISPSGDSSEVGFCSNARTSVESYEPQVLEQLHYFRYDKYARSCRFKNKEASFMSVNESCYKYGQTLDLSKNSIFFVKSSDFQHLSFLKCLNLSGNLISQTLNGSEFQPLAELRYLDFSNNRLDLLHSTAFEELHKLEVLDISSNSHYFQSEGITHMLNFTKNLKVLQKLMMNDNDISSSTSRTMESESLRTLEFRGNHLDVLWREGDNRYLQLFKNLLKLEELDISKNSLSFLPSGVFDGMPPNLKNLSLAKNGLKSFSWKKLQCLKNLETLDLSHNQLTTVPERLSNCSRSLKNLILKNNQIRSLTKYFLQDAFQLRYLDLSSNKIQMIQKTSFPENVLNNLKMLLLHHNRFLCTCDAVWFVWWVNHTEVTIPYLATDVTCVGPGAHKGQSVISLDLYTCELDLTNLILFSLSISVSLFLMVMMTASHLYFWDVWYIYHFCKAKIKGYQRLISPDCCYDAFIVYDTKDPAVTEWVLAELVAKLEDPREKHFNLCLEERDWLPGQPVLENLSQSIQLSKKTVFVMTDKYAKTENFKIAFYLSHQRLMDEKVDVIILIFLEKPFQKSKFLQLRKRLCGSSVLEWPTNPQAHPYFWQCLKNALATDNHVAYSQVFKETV
The assay can be described thus: HEK/293 TLR7 Cell Assay. The class given is cell-based. The settings on record: TLR7/NFKb HEK cells, R848 agonist 10 uM final concentration, Steady-Glo readout; read-out: TLR7 potency. An outline of the steps: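 TLR7/NF-κB reporter HEK293 cells, 5000/well, cultured 24 h, then preincubated 30 min with compound before R848 agonist (10 uM final). After 5 h stimulation, Steady-Glo luciferase luminescence read.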

pIC50: −log10 of the molar value.

For the compound `C[C@H]1C[C@@H](NCC2CCS(=O)(=O)C2)CN(c2ccc(C#N)c3nccnc23)C1` (stereo partly drawn) [Example 42, 8-{(3R,5S)-3-[(1,1-Dioxo-tetrahydro-1lambda6-thiophen-3-ylmethyl)-amino]-5-methyl-piperidin-1-yl}-quinoxaline-5-carbonitrile], the pIC50 on TLR8 and at TLR7 was 6.82 to 7.12 each time.
Regarding `C[C@@H]1CN(c2cnc(C#N)c3ncccc23)C[C@H](CN2CCC(F)(CN)CC2)O1` [Example 370, 5-[(2S,6R)-2-(4-Aminomethyl-4-fluoro-piperidin-1-ylmethyl)-6-methyl-morpholin-4-yl]-[1,7]naphthyridine-8-carbonitrile], the pIC50 on TLR8 and at TLR7 was above 7.12 in each case.
On to `C[C@@H]1CN(c2cnc(C(F)(F)F)c3ncccc23)C[C@H](CNC[C@H]2CN(C)CCO2)O1` (single isomer, unassigned) [Example 385], for which the pIC50 was above 7.12 on TLR8 and below 6.82 on TLR7.
As for `C[C@@H]1CN(c2ccc(C#N)c3nccnc23)C[C@H](C(=O)NCC2CS(=O)(=O)C2)O1` [Example 258, (2R,6R)-4-(8-cyanoquinoxalin-5-yl)-N-[(1,1-dioxo-1λ^6-thietan-3-yl)methyl]-6-methylmorpholine-2-carboxamide], the pIC50 was below 6.82 at TLR8 and above 7.12 at TLR7.
Take `CN1CCN(CC(=O)N[C@@H]2C[C@H](C(F)(F)F)CN(c3ccc(C(F)(F)F)c4ncccc34)C2)CC1` [Example 66, 2-(4-methylpiperazin-1-yl)-N-[(3R,5S)-5-(trifluoromethyl)-1-[8-(trifluoromethyl)quinolin-5-yl]piperidin-3-yl]acetamide]: the pIC50 on TLR8 and on TLR7 was above 7.12 each time.
Regarding `CC(=O)N1CCC(NC[C@H]2CN(c3cnc(C#N)c4ncccc34)C[C@@H](C)O2)CC1` [Example 381, 5-{(2S,6R)-2-[(1-Acetyl-piperidin-4-ylamino)-methyl]-6-methyl-morpholin-4-yl}-[1,7]naphthyridine-8-carbonitrile], the pIC50 at TLR8 and on TLR7 was below 6.82 throughout.
For `C[C@@H]1CN(c2cnc(C#N)c3ncccc23)C[C@H](CNC(=O)[C@@]2(F)CCN(C)C2)O1` (single isomer, unassigned) [Example 334], the pIC50 at TLR8 was above 7.12; on TLR7 it was below 6.82.
Turning to `C[C@@H]1CN(c2cnc(C#N)c3ncccc23)C[C@H](C(=O)NC2CCC(N3CCOCC3)CC2)O1` (stereo partly drawn) [Example 277, (2R,6R)-4-(8-Cyano-[1,7]naphthyridin-5-yl)-6-methyl-morpholine-2-carboxylic acid (4-morpholin-4-yl-cyclohexyl)-amide], the pIC50 at TLR8 and on TLR7 was above 7.12 throughout.
On to `C[C@H]1C[C@@H](NC(=O)NCCN(C)C)CN(c2ccc(C#N)c3nccnc23)C1` [Example 140, 1-[(3R,5S)-1-(8-cyanoquinoxalin-5-yl)-5-methylpiperidin-3-yl]-3-[2-(dimethylamino)ethyl]urea], for which the pIC50 on TLR8 and at TLR7 was above 7.12 in each case.
Turning to `C[C@H]1C[C@@H](NC(=O)C[C@@H](O)CN(C)C)CN(c2ccc(C#N)c3nccnc23)C1` [Example 211, (3R)—N-[(3R,5S)-1-(8-cyanoquinoxalin-5-yl)-5-methylpiperidin-3-yl]-4-(dimethylamino)-3-hydroxybutanamide], the pIC50 at TLR8 and at TLR7 was above 7.12 throughout.
`N#Cc1ccc(N2C[C@H](N)CC(F)(F)C2)c2cccnc12` (single isomer, unassigned) [Example 197]: the pIC50 at TLR8 and on TLR7 was above 7.12 in each case.
For the compound `C[C@@H]1CN(c2ccc(C#N)c3nccnc23)C[C@H](C(=O)N[C@H]2CCN(CC3CC3)C2)O1` (single isomer, unassigned) [Example 322], the pIC50 on TLR8 and on TLR7 was above 7.12 throughout.
On to `C[C@H]1C[C@@H](NC(=O)[C@H]2CCCN2)CN(c2ccc(C#N)c3nccnc23)C1` [Example 174, (R)-Pyrrolidine-2-carboxylic acid [(3R,5S)-1-(8-cyano-quinoxalin-5-yl)-5-methyl-piperidin-3-yl]-amide], for which the pIC50 on TLR8 was 6.82 to 7.12; on TLR7 it was below 6.82.
For the compound `CC(=O)NCCNC(=O)[C@H]1CN(c2ccc(C#N)c3nccnc23)C[C@@H](C)O1` [Example 243, (2R,6R)-4-(8-Cyano-quinoxalin-5-yl)-6-methyl-morpholine-2-carboxylic acid (2-acetylamino-ethyl)-amide], the pIC50 on TLR8 is below 6.82; on TLR7 it was 6.82 to 7.12.
`CN1CCC(O)(CC(=O)N[C@@H]2C[C@H](C(F)(F)F)CN(c3ccc(C#N)c4nccnc34)C2)CC1` [Example 76, N-[(3R,5S)-1-(8-cyanoquinoxalin-5-yl)-5-(trifluoromethyl)piperidin-3-yl]-2-(4-hydroxy-1-methylpiperidin-4-yl)acetamide]: the values for the pIC50 on TLR8 and at TLR7 were above 7.12 and 6.82 to 7.12, respectively.
Take `C[C@@H]1CN(c2ccc(C#N)c3nccnc23)C[C@H](C(=O)NC[C@H]2COCCN2)O1` (single isomer, unassigned) [Example 296]: the pIC50 at TLR8 and on TLR7 was above 7.12 each time.
On to `N#Cc1ccc(N2C[C@@H](C(=O)NC[C@]3(F)CCNC3)O[C@@H](C(F)(F)F)C2)c2cccnc12` (single isomer, unassigned) [Example 313], for which the pIC50 at TLR8 and on TLR7 was above 7.12 each time.
Take `N#Cc1ccc(N2C[C@H](NC(=O)C3(F)CCNC3)C[C@H](C(F)(F)F)C2)c2cccnc12` (single isomer, unassigned) [Example 163]: the pIC50 on TLR8 and at TLR7 was above 7.12 in each case.
`Cc1c(F)cc(N2C[C@@H](C)C[C@@H](NC(=O)[C@@H](N)[C@@H](C)O)C2)c2cccnc12` [Example 134, (2S,3R)-2-Amino-N-[(3R,5S)-1-(7-fluoro-8-methyl-quinolin-5-yl)-5-methyl-piperidin-3-yl]-3-hydroxy-butyramide]: the pIC50 on TLR8 and on TLR7 was 6.82 to 7.12 in each case.
For `N#Cc1ccc(N2C[C@H](N)CC(F)(F)C2)c2cccnc12` (single isomer, unassigned) [Example 198], the pIC50 at TLR8 and at TLR7 was below 6.82 throughout.
As to `C[C@@H]1CN(c2ccc(C#N)c3nccnc23)C[C@H](C(=O)NCC2CCCN2C)O1` (stereo partly drawn) [Example 245, (2R,6R)-4-(8-Cyano-quinoxalin-5-yl)-6-methyl-morpholine-2-carboxylic acid (1-methyl-pyrrolidin-2-ylmethyl)-amide], the pIC50 on TLR8 and at TLR7 was above 7.12 each time.
